Read-outs that look alike come from different tables or passages of the source.
What was measured:
[1] = system: West Nile virus (WNV-GFP); assay: microbe, parasite or virus in culture; type: cell-based; conditions: Huh-7, 48 h
[2] = system: SARS-CoV-2 in Vero-E6 cells; assay: microbe, parasite or virus in culture; type: cell-based; conditions: for EC50: read-out: EC50 approx.
[3] = Cytotoxicity by MTT colorimetric assay, Vero-E6; type: cell-based; conditions: African green monkey, uninfected Vero-E6 cells
SARS-CoV-2 [4] = assay: Intracellular viral antigen (N protein) accumulation by immunofluorescence, A549-ACE2 cells; type: cell-based
in vitro [5] = conditions: African green monkey
HCoV 229E (229E-GFP) = assay: organism not typed; conditions: Huh-7, 48 h
Method: (§1) To study the antiviral effect of selected compounds of the family against a distinct human coronavirus, Huh-7 cell monolayers were infected with a GFP-expressing recombinant HCoV 229E (229E-GFP) at MOI 0.01 in the presence of a wide range of compound concentrations (0.4 to 50 µM). Forty-eight hours later cells were fixed by 10 minutes incubation with a 4 % formaldehyde-PBS solution. After extensive washes with PBS, infection efficiency was evaluated by the detection of GFP accumulation by fluorescence microscopy. Nuclei were stained using DAPI (4',6-diamidino-2-phenylindole) dye. Automated imaging was carried out in a SparkCyto (Tecan) multimode plate reader. The total intensity signal present in vehicle-treated (DMSO) conditions was used as reference (100 %).

SARS-CoV-2 [6] = assay: Intracellular viral antigen (N protein) accumulation by immunofluorescence, Vero-E6 cells; type: cell-based
[7] = system: vesicular stomatitis virus (VSV-GFP); assay: microbe, parasite or virus in culture; type: cell-based; conditions: A549-ACE2, 16 h
in vitro [8] = conditions: human
in vitro [9] = conditions: human; remark: listed apart in the source
Method: Cytotoxicity profile of the selected compounds was evaluated by MTT assays in parallel wells of Huh-7 cells. Uninfected cells were incubated with a range of compound concentrations (from 50 to 0.78 µM) for forty-eight hours, time at which the MTT substrate [3-(4,5-dimethylthiazol-2-yl)-2,5-diphenyltetrazolium bromide] was added and the formation of formazan precipitates was evaluated two hours later, using a colorimetric readout. Vehicle-treated (DMSO) cells were used as reference (100 %).

in vitro [10] = conditions: human; remark: listed apart in the source
Method: as §1

in vitro [11] = conditions: human; remark: listed apart in the source
Method: To evaluate the cytotoxicity profile of the selected compounds MTT assays were performed in Vero-E6 and A549-ACE2 cells. Uninfected cells were incubated with a range of compound concentrations (from 50 to 0.78 µM) for forty-eight hours, time at which the MTT substrate [3-(4,5-dimethylthiazol-2-yl)-2,5-diphenyltetrazolium bromide] was added and the formation of formazan precipitates was evaluated two hours later, using a colorimetric readout. Vehicle-treated (DMSO) cells were used as reference (100 %).

in vitro [12] = conditions: human; remark: listed apart in the source
[13] = Severe acute respiratory syndrome coronavirus 2, Vero C1008, approximate, estimated from PCmax and PCmin, Vero-E6, MOI 0.001, 72 h
[14] = Severe acute respiratory syndrome coronavirus 2, Vero C1008, minimum nominal concentration protecting the Vero-E6 monolayer from virus-induced cell death, MOI 0.001, 72 h, read-out: PCmin
[15] = Severe acute respiratory syndrome coronavirus 2, Vero C1008, real concentration, Vero-E6, MOI 0.001, 72 h, read-out: PC min real
[16] = Severe acute respiratory syndrome coronavirus 2, A549-ACE2, MOI 0.005, 48 h, N protein signal, read-out: EC50
[17] = Severe acute respiratory syndrome coronavirus 2, A549-ACE2, MOI 0.005, 48 h, N protein signal, read-out: EC90
[18] = Severe acute respiratory syndrome coronavirus 2, Vero C1008, Vero-E6, MOI 0.01, 24 h, N protein signal, read-out: EC50
[19] = Severe acute respiratory syndrome coronavirus 2, Vero C1008, Vero-E6, MOI 0.01, 24 h, N protein signal, read-out: EC90
[20] = Severe acute respiratory syndrome coronavirus 2, Vero C1008, 72 h
[21] = Severe acute respiratory syndrome coronavirus 2, Vero C1008, 72 h, read-out: PC min real
[22] = Severe acute respiratory syndrome coronavirus 2, Vero C1008, 72 h, read-out: PCmin
[23] = Severe acute respiratory syndrome coronavirus 2, A549-ACE2, 48 h
[24] = Severe acute respiratory syndrome coronavirus 2, Vero C1008, 24 h

| Structure (SMILES) | EC50 [2, 13] | minimal effective concentration [2, 14] | minimal effective concentration [2, 15] | EC50 [2, 20] | minimal effective concentration [2, 21] | minimal effective concentration [2, 22] | also measured |
| --- | --- | --- | --- | --- | --- | --- | --- |
| CCOC(=O)[C@H](CCC(=O)NCCC1CCN(Cc2ccccc2)CC1)NC(=O)OCc1ccccc1 [NF1365, Ethyl N^2-((benzyloxy)carbonyl)-N^5-(2-(1-benzylpiperidin-4-yl)ethyl)-L-glutaminate] | 2.4 µM | 3.12 µM | 3.2 µM |  |  |  | EC50 [1]: 27 µM; EC90 [1]: 45 µM; CC50 at 48 h [3]: > 50 µM; EC50 (SARS-CoV-2 [4]; [16]): 1 to 2 µM; EC90 (SARS-CoV-2 [4]; [17]): 2.5 to 5 µM; CC50 (in vitro [5]): 50 µM; EC50 (HCoV 229E (229E-GFP)): 1 µM; EC90 (HCoV 229E (229E-GFP)): 8 µM; EC50 (SARS-CoV-2 [6]; [18]): 1.8 µM; EC90 (SARS-CoV-2 [6]; [19]): 6 µM; EC50 [7]: 36 µM; EC90 [7]: 47 µM |
| CCCCCCOC(=O)[C@H](CCC(=O)NCCC1CCN(Cc2ccccc2)CC1)NC(=O)c1c[nH]c2ccccc12 [NF1325] | 19.6 µM | 25 µM | 26.1 µM |  |  |  |  |
| CCOC(=O)[C@H](CCC(=O)NCCC1CCN(Cc2ccccc2)CC1)NC(=O)c1ccc2ccccc2n1 [NF1360, Ethyl N^5-(2-(1-benzylpiperidin-4-yl)ethyl)-N^2-(quinoline-2-carbonyl)-L-glutaminate] | 24.3 µM | 50 µM | 32.3 µM |  |  |  |  |
| CCCCCCOC(=O)[C@H](CCC(=O)NCCC1CCN(Cc2ccccc2)CC1)NC(=O)Cc1cc2ccc(Cl)cc2s1 [NF1353] |  |  |  | 4.5 µM | 6 µM | 6.25 µM |  |
| CCCCCCOC(=O)[C@H](CCC(=O)NCCC1CCN(Cc2ccccc2)CC1)NC(=O)Cc1cc(C)no1 [NF1334, n-Hexyl N^5-(2-(1-benzylpiperidin-4-yl)ethyl)-N^2-(2-(3-methylisoxazol-5-yl)acetyl)-L-glutaminate] | 10.5 µM | 25 µM | 14 µM |  |  |  |  |
| CCCCCCOC(=O)[C@H](CCC(=O)NCCC1CCN(Cc2ccccc2)CC1)NC(=O)c1coc(C)n1 [NF1331, n-Hexyl N^5-(2-(1-benzylpiperidin-4-yl)ethyl)-N^2-(2-methyloxazole-4-carbonyl)-L-glutaminate] | 2.4 µM | 3.12 µM | 3.3 µM |  |  |  | CC50 at 48 h (in vitro [8]): > 50 µM; EC50 [1]: > 50 µM; EC90 [1]: > 50 µM; CC50 at 48 h [3]: > 50 µM; EC50 (SARS-CoV-2 [4]; [16]): 1.8 µM; EC90 (SARS-CoV-2 [4]; [17]): 5 µM; CC50 (in vitro [9]): > 50 µM; CC50 at 48 h (in vitro [9]): > 50 µM; CC50 at 48 h (in vitro [10]): 43 µM; CC50 (in vitro [11]): > 50 µM; CC50 at 48 h (in vitro [11]): > 50 µM; CC50 (in vitro [5]): > 50 µM; CC50 (in vitro [12]): > 50 µM; EC50 (HCoV 229E (229E-GFP)): 2 µM; EC90 (HCoV 229E (229E-GFP)): 20 µM; EC50 (SARS-CoV-2 [6]; [18]): 1.5 µM; EC90 (SARS-CoV-2 [6]; [19]): 11 µM; EC50 [7]: 38 µM; EC90 [7]: > 50 µM |
| CCOC(=O)[C@H](CCC(=O)NCCC1CCN(Cc2ccccc2)CC1)NC(=O)c1cc2ccccc2oc1=O [NF1358, Ethyl N^5-(2-(1-benzylpiperidin-4-yl)ethyl)-N^2-(2-oxo-2H-chromene-3-carbonyl)-L-glutaminate] | 19.1 µM | 25 µM | 25.4 µM |  |  |  |  |
| CCCCCCOC(=O)[C@H](CCC(=O)NCCC1CCN(Cc2ccccc2)CC1)NC(=O)c1cc(C)on1 [NF1328, n-Hexyl N^5-(2-(1-benzylpiperidin-4-yl)ethyl)-N^2-(5-methylisoxazole-3-carbonyl)-L-glutaminate] | 4.9 µM | 6.25 µM | 6.5 µM |  |  |  |  |
| CCCCCCOC(=O)[C@H](CCC(=O)NCCC1CCN(Cc2ccccc2)CC1)NC(=O)c1cc(=O)c2c(OC)cc(OC)cc2o1 [NF1340, n-Hexyl N^5-(2-(1-benzylpiperidin-4-yl)ethyl)-N^2-(5,7-dimethoxy-4-oxo-4H-chromene-2-carbonyl)-L-glutaminate] | 41.8 µM | 50 µM | 55.7 µM |  |  |  |  |
| CCOC(=O)[C@H](CCC(=O)NCCC1CCN(Cc2ccccc2)CC1)NC(=O)c1ccc2cc(OC)ccc2c1 [NF1322] | 9.4 µM | 12.5 µM | 12.5 µM |  |  |  |  |
| CCCCCCOC(=O)[C@H](CCC(=O)NCCC1CCN(Cc2ccccc2)CC1)NC(=O)c1ccccc1 [NF0818] |  |  |  | 9.7 µM |  |  | PC min real ([2]; 72 h): 13.0 µM; PCmax real ([2]; 72 h): 51.9 µM |
| CCCCCCOC(=O)[C@H](CCC(=O)NCCC1CCN(Cc2ccccc2)CC1)NC(=O)c1cc2ccccc2s1 [NF1352] |  |  |  | 9.2 µM | 12.3 µM | 12.5 µM |  |
| CCOC(=O)CC[C@H](NC(=O)OCc1ccccc1)C(=O)NCCC1CCN(Cc2ccccc2)CC1 [NF1313] | 19 µM | 25 µM | 25.3 µM |  |  |  |  |
| CCCCCCOC(=O)[C@H](CCC(=O)NCCC1CCN(Cc2ccccc2)CC1)NC(=O)OC(C)(C)C [NF1346] |  |  |  | 9.3 µM | 12.4 µM | 12.5 µM |  |
| CCOC(=O)[C@H](CCC(=O)NCCC1CCN(Cc2ccccc2)CC1)NC(=O)c1ccccc1 [NF1316] | 19.4 µM | 25 µM | 25.9 µM |  |  |  |  |
| CCCCCCOC(=O)[C@H](CCC(=O)NCCC1CCN(Cc2ccccc2)CC1)NC(=O)c1cc(Br)cs1 [NF1351] |  |  |  | 4.3 µM | 5.7 µM | 6.25 µM |  |
| O=C(CC[C@H](NC(=O)OCc1ccccc1)C(=O)OCCBr)NCCC1CCN(Cc2ccccc2)CC1 [NF1363, 2-Bromoethyl N^2-((benzyloxy)carbonyl)-N^5-(2-(1-benzylpiperidin-4-yl)ethyl)-L-glutaminate] | 5.4 µM | 6.25 µM | 7.3 µM |  |  |  |  |
| CCCCCCOC(=O)[C@H](CCC(=O)NCCC1CCN(Cc2ccccc2)CC1)NC(=O)c1cc2cccnc2s1 [NF1354] |  |  |  | 20.9 µM | 27.8 µM | 25 µM |  |
| CCCCCCOC(=O)[C@H](CCC(=O)NCCC1CCN(Cc2ccccc2)CC1)NC(=O)c1cccs1 [NF1350] |  |  |  | 6.9 µM | 9.2 µM | 6.25 µM |  |
| CCOC(=O)[C@H](CCC(=O)NCCC1CCN(Cc2ccccc2)CC1)NC(=O)c1cc(=O)c2cc(OC)ccc2o1 [NF1336, Ethyl N^5-(2-(1-benzylpiperidin-4-yl)ethyl)-N^2-(6-methoxy-4-oxo-4H-chromene-2-carbonyl)-L-glutaminate] | 18.4 µM | 25 µM | 24.5 µM |  |  |  |  |
| CCCCCCOC(=O)[C@H](CCC(=O)NCCC1CCN(Cc2ccccc2)CC1)NC(=O)OCc1ccccc1 [NF1349] |  |  |  | 4.7 µM | 6.3 µM | 6.25 µM | EC50 [1]: 36 µM; EC90 [1]: > 50 µM; CC50 at 48 h [3]: > 50 µM; EC50 (SARS-CoV-2 [4]; [23]): 3 µM; EC90 (SARS-CoV-2 [4]; [23]): 5.5 µM; CC50 (in vitro [5]): > 50 µM; EC50 (HCoV 229E (229E-GFP)): 2 µM; EC90 (HCoV 229E (229E-GFP)): 10 µM; EC50 (SARS-CoV-2 [6]; [24]): 3.1 µM; EC90 (SARS-CoV-2 [6]; [24]): 7 µM; EC50 [7]: 36 µM; EC90 [7]: 47 µM |
| CCCCCCOC(=O)[C@H](CCC(=O)NCCC1CCN(Cc2ccccc2)CC1)NC(=O)c1cc(=O)c2cc(OC)ccc2o1 [NF1337, n-Hexyl N^5-(2-(1-benzylpiperidin-4-yl)ethyl)-N^2-(6-methoxy-4-oxo-4H-chromene-2-carbonyl)-L-glutaminate] | 7.7 µM | 12.5 µM | 10.3 µM |  |  |  |  |
